Test results published in patent US5053415A, “Pyridine derivatives” (Imperial Chemical Industries PLC, priority 1988, dated 1991).

Legend:
TXA2 synthase = target: T1, TXA2 synthase (Homo sapiens, UniProt P24557); test: test (e): human platelet microsomal TXA2 synthase inhibition (conversion of arachidonic acid to TXB2); format: biochemical
T1 construct: human platelet microsomal TXA2 synthase preparation; from tissue; host or cells: human platelet microsomes
T1 sequence (P24557 1-533): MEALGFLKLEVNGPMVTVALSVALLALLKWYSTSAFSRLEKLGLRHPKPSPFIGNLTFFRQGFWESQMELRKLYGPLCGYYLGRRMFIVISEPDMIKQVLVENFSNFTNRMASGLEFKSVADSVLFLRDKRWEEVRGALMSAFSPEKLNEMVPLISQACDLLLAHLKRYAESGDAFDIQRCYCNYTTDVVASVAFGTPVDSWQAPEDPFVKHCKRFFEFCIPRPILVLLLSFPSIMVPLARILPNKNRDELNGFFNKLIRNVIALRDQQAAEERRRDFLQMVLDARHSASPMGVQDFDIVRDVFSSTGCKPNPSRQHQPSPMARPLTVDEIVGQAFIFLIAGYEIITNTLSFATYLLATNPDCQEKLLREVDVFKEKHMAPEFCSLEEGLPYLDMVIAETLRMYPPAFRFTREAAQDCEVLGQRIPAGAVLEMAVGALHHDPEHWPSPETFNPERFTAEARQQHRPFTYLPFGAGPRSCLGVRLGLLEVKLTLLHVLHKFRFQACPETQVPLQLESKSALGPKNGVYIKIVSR

thromboxane receptor = target: T2, thromboxane receptor (Homo sapiens, UniProt P21731); test: test (b): blood platelet aggregation test, U46619-stimulated aggregation of human citrated platelet-rich plasma; format: cell-based; settings: averaged over several concentrations
T2 construct: human, citrated, platelet-rich plasma; endogenous in cells; host or cells: human platelets in citrated platelet-rich plasma
T2 sequence (P21731 1-343): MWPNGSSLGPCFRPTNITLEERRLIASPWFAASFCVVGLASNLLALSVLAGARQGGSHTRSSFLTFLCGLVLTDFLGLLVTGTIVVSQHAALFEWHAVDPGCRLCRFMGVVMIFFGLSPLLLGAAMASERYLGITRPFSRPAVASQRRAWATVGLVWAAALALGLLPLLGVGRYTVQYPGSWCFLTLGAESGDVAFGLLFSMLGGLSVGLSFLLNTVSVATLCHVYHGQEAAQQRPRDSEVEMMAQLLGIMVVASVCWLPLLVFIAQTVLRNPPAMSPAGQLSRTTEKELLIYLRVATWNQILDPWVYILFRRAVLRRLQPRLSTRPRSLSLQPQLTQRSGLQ
Description: (b) a blood platelet aggregation test based on that described by Born (Nature, 1962, 194, 927-929) and involving:
(i) aggregating human, citrated, platelet-rich plasma by addition of the TXA2 mimetic agent U46619 so that a dose-response curve is generated;
(ii) generating a dose-response curve for U46619 stimulated platlet aggregation in the presence of increasing amounts of test compound (generally in the range 10^-5 M to 10^-10 M); and
(iii) calculating a KB value indicating potency of TXA2 antagonism for the test compound, averaged over several concentrations, from the calculated 50% response value for U46619 aggregation in the presence and absence of test compound; or […]

- IC50 (TXA2 synthase): 40 nM
- Kb (thromboxane receptor): 300 nM
Compound: COc1ccc(OC(C)(C)[C@H]2OC[C@@H](C/C=C\CCC(=O)O)[C@@H](c3cccnc3)O2)cc1 (relative stereo) [Example 1, 4(Z)-6[(2,4,5-cis)-2-(1-(4-methoxyphenoxy)-1-methylethyl)-4-(3-pyridyl)-1,3-dioxan-5-yl]-hexenoic acid]
